The text below walks through data of patent US9695154B2, “Heteroaryl inhibitors of sumo activating enzyme” (MILLENNIUM PHARMACEUTICALS, INC., priority 2013, dated 2017).

pIC50: −log10 of the molar value. Bounds are passed on as bounds.

The test deals with T1, recombinant human SAE enzyme (Homo sapiens, UniProt Q9UBT2).
T1 sequence (Q9UBT2 1-640): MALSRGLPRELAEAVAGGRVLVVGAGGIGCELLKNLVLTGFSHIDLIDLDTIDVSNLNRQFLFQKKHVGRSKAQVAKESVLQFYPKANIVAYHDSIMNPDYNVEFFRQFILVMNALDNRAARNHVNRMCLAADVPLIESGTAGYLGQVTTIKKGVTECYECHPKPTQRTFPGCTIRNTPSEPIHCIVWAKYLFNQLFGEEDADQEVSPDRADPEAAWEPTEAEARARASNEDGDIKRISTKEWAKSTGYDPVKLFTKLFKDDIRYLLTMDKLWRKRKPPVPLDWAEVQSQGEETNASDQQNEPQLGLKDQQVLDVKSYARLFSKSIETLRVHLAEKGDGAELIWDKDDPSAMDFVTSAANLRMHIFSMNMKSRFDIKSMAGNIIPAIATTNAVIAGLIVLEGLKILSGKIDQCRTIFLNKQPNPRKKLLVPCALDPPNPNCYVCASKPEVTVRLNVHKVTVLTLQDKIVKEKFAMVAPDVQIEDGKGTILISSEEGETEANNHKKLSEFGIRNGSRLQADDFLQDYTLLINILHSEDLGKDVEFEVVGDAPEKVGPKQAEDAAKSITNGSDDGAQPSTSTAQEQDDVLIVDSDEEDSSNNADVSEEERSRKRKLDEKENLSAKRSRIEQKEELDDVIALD
T1 sequence (Q9UBE0 1-346 partner): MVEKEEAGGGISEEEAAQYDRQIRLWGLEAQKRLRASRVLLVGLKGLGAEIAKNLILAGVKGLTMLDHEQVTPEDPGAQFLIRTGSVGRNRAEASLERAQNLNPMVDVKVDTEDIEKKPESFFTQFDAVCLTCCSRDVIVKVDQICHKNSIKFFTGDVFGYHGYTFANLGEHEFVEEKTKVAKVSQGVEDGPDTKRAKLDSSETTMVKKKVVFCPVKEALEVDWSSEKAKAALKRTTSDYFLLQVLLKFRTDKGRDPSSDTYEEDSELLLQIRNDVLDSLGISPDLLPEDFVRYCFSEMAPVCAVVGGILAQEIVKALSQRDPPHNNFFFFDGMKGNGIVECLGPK
As to the kind of experiment: SAE HTRF Enzyme Assay. Type of test: biochemical. Particulars: for pIC50: class symbols A-C; for inhibition at 0.111 µM: read-out: Percent Inhibition. The method, boiled down:
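HTRF signal from Eu-anti-Flag/APC-anti-GST pairs reports Sumo-Flag loaded onto Ubc9-GST by 0.11 nM SAE. Reaction: 0.5 μM ATP, 0.125 μM Sumo-Flag, 0.01 μM Ubc9-GST, 5 mM MgCl2, pH 7.5, 105 min, 24° C. Single-concentration % inhibition or IC50 reported.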

Where [1] appears, read: compound concentration 0.111 μM.

In the case of `NS(=O)(=O)OC[C@H]1C[C@@H](Nc2ncncc2C(=O)c2ccn(Cc3ccccc3)n2)[C@H](O)[C@@H]1O` [Compound I-142, [(1R,2R,3S,4R)-4-({5-[(1-Benzyl-1H-pyrazol-3-yl)carbonyl]pyrimidin-4-yl}amino)-2,3-dihydroxycyclopentyl]methyl sulfamate], the negative logarithm of the IC50 (pIC50) is above 8.00. Besides, the inhibition at 0.111 µM under setting [1] worked out at 99%.

For `NS(=O)(=O)OC[C@H]1C[C@@H](Nc2ncncc2C(=O)c2ccn(Cc3cc(C(F)(F)F)ccc3F)n2)[C@H](O)[C@@H]1O` [Compound I-230, [(1R,2R,3S,4R)-4-{[5-({1-[2-fluoro-5-(trifluoromethyl)benzyl]-1H-pyrazol-3-yl}carbonyl)pyrimidin-4-yl]amino}-2,3-dihydroxycyclopentyl]methyl sulfamate], the pIC50 is above 8.00. In addition, the inhibition at 0.111 µM under setting [1] amounted to 98%.

For the compound `Cc1cc(C(=O)c2cncnc2N[C@@H]2C[C@H](COS(N)(=O)=O)[C@@H](O)C2)nn1C(C)c1cccc(Cl)c1` (single isomer, unassigned) [Compound I-172, [(1R,2S,4R)-4-{[5-({1-[(1R)-1-(3-chlorophenyl)ethyl]-5-methyl-1H-pyrazol-3-yl}carbonyl)pyrimidin-4-yl]amino}-2-hydroxycyclopentyl]methyl sulfamate or [(1R,2S,4R)-4-{[5-({1-[(1S)-1-(3-chlorophenyl)ethyl]-5-methyl-1H-pyrazol-3-yl}carbonyl)pyrimidin-4-yl]amino}-2-hydroxycyclopentyl]methyl sulfamate], the pIC50 is 7.00 to 8.00. Besides, the inhibition at 0.111 µM under setting [1] amounted to 83%.

`NS(=O)(=O)OC[C@H]1C[C@@H](Nc2ncncc2C(=O)c2ccn(Cc3ccccc3)c2)C[C@@H]1O` [Compound I-300, [(1R,2S,4R)-4-({5-[(1-Benzyl-1H-pyrrol-3-yl)carbonyl]pyrimidin-4-yl}amino)-2-hydroxycyclopentyl]methyl sulfamate]: the negative logarithm of the IC50 (pIC50) is above 8.00. Moreover, under setting [1], the inhibition at 0.111 µM was determined as 97%.

Consider `NS(=O)(=O)OC[C@H]1C[C@@H](Nc2ncncc2C(=O)c2ccn(Cc3cccc(I)c3)n2)[C@@H](F)[C@@H]1O` [Compound I-42, {(1R,2R,3R,4R)-3-fluoro-2-hydroxy-4-[(5-{[1-(3-iodobenzyl)-1H-pyrazol-3-yl]carbonyl}pyrimidin-4-yl)amino]cyclopentyl}methyl sulfamate], for which the pIC50 is above 8.00. Moreover, the inhibition at 0.111 µM under setting [1] is 99%.

On to `NS(=O)(=O)OC[C@H]1C[C@@H](Nc2ncncc2C(=O)c2ccn(Cc3cc(Br)ccn3)n2)[C@H](O)[C@@H]1O` [Compound I-324, [(1R,2R,3S,4R)-4-{[5-({1-[(4-bromopyridin-2-yl)methyl]-1H-pyrazol-3-yl}carbonyl)pyrimidin-4-yl]amino}-2,3-dihydroxycyclopentyl]methyl sulfamate], for which the pIC50 was above 8.00. Further, under setting [1], the inhibition at 0.111 µM worked out at 100%.

For `Cc1cc(C(=O)c2cncnc2N[C@@H]2C[C@H](COS(N)(=O)=O)[C@@H](O)C2)nn1Cc1cccc(Cl)n1` [Compound I-99, [(1R,2S,4R)-4-{[5-({1-[(6-chloropyridin-2-yl)methyl]-5-methyl-1H-pyrazol-3-yl}carbonyl)pyrimidin-4-yl]amino}-2-hydroxycyclopentyl]methyl sulfamate], the pIC50 is above 8.00. In addition, the inhibition at 0.111 µM under setting [1] is above 99%.

With `NS(=O)(=O)OC[C@H]1C[C@@H](Nc2ncncc2C(=O)c2ccn(CC3CC3c3ccccc3)c2)[C@@H](F)[C@@H]1O` (single isomer, unassigned) [Compound I-359, [(1R,2R,3R,4R)-3-fluoro-2-hydroxy-4-{[5-({1-[(1R,2R)-(2-phenylcyclopropyl)methyl]-1H-pyrrol-3-yl}carbonyl)pyrimidin-4-yl]amino}cyclopentyl]methyl sulfamate or [(1R,2R,3R,4R)-3-fluoro-2-(hydroxy-4-{[5-({1-[(1S,2S)-(2-phenylcyclopropyl)methyl]-1H-pyrrol-3-yl}carbonyl)pyrimidin-4-yl]amino}cyclopentyl]methyl sulfamate], the pIC50 is 7.00 to 8.00. Moreover, the “Percent Inhibition” value (compound concentration 0.111 μM, 0.111 µM) turned out to be 68%.
